Laboratory results: article PMC4770715, “LIM kinase inhibitors disrupt mitotic microtubule organization and impair tumor cell proliferation” (Oncotarget, 2015)
pIC50: −log10 of the molar value.

How the values were obtained:
MEK4 = biological target: T1, MEK4 (Homo sapiens, UniProt P45985); experiment: biochemical; set-up: KINOMEscan active-site competition binding, percent of control (100 = no competition); details: competition binding, percent control
T1 construct: gene MAP2K4
Text: (§1) Given the potential for the use of LIMK inhibitors as cancer chemotherapeutics, a high-throughput drug discovery and medicinal chemistry program was undertaken. Details of the screening methodology and description of initial hit matter were described in [38]. […] Details of their chemical synthesis are described in Charles et al.. […] These and additional physiochemical parameters are in Supplemental Table 5. […] Kinases inhibited >25% to 50% have yellow circles, 51% to 75% have orange circles, and >76% have red circles. In each case, the size of the circle is proportional to percentage inhibition. LIMK1 and LIMK2 positions are indicated in blue. Illustration reproduced courtesy of Cell Signaling Technology, Inc. (www.cellsignal.com). B. CRT0105950 structure and kinome selectivity mapping as described above. C.

MAP3K3 = MAP3K3 (Homo sapiens, UniProt Q99759); experiment: biochemical; set-up: KINOMEscan active-site competition binding, percent of control (100 = no competition); details: competition binding, percent control
Text: as §1

[1] = biological target: T2, JAK3(JH1domain-catalytic) (Homo sapiens, UniProt P52333); experiment: biochemical; set-up: KINOMEscan active-site competition binding, percent of control (100 = no competition); details: competition binding, percent control
T2 construct: JH1domain-catalytic
Text: as §1

LYN = LYN (Homo sapiens, UniProt P07948); experiment: biochemical; set-up: KINOMEscan active-site competition binding, percent of control (100 = no competition); details: competition binding, percent control
Text: as §1

SRPK2 = SRPK2 (Homo sapiens, UniProt P78362); experiment: biochemical; set-up: KINOMEscan active-site competition binding, percent of control (100 = no competition); details: competition binding, percent control
Text: as §1

CDK8 = CDK8 (Homo sapiens, UniProt P49336); experiment: biochemical; set-up: KINOMEscan active-site competition binding, percent of control (100 = no competition); details: competition binding, percent control
Text: as §1

MEK5 = biological target: T3, MEK5 (Homo sapiens, UniProt Q13163); experiment: biochemical; set-up: KINOMEscan active-site competition binding, percent of control (100 = no competition); details: competition binding, percent control
T3 construct: gene MAP2K5
Text: as §1

SRPK1 = SRPK1 (Homo sapiens, UniProt Q96SB4); experiment: biochemical; set-up: KINOMEscan active-site competition binding, percent of control (100 = no competition); details: competition binding, percent control
Text: as §1

MST1 = biological target: T4, MST1 (Homo sapiens, UniProt Q13043); experiment: biochemical; set-up: KINOMEscan active-site competition binding, percent of control (100 = no competition); details: competition binding, percent control
T4 construct: gene STK4
Text: as §1

MARK3 = MARK3 (Homo sapiens, UniProt P27448); experiment: biochemical; set-up: KINOMEscan active-site competition binding, percent of control (100 = no competition); details: competition binding, percent control
Text: as §1

EGFR(E746-A750del) = EGFR(E746-A750del) (Homo sapiens, UniProt P00533, DEL746-750); experiment: biochemical; set-up: KINOMEscan active-site competition binding, percent of control (100 = no competition); details: competition binding, percent control
Text: as §1

TNIK = TNIK (Homo sapiens, UniProt Q9UKE5); experiment: biochemical; set-up: KINOMEscan active-site competition binding, percent of control (100 = no competition); details: competition binding, percent control
Text: as §1

[2] = biological target: T5, RPS6KA4(Kin.Dom.1-N-terminal) (Homo sapiens, UniProt O75676); experiment: biochemical; set-up: KINOMEscan active-site competition binding, percent of control (100 = no competition); details: competition binding, percent control
T5 construct: Kin.Dom.1-N-terminal
Text: as §1

PRKR = biological target: T6, PRKR (Homo sapiens, UniProt P19525); experiment: biochemical; set-up: KINOMEscan active-site competition binding, percent of control (100 = no competition); details: competition binding, percent control
T6 construct: gene EIF2AK2
Text: as §1

MAP4K4 = MAP4K4 (Homo sapiens, UniProt O95819); experiment: biochemical; set-up: KINOMEscan active-site competition binding, percent of control (100 = no competition); details: competition binding, percent control
Text: as §1

RIPK1 = RIPK1 (Homo sapiens, UniProt Q13546); experiment: biochemical; set-up: KINOMEscan active-site competition binding, percent of control (100 = no competition); details: competition binding, percent control
Text: as §1

PYK2 = biological target: T7, PYK2 (Homo sapiens, UniProt Q14289); experiment: biochemical; set-up: KINOMEscan active-site competition binding, percent of control (100 = no competition); details: competition binding, percent control
T7 construct: gene PTK2B
Text: as §1

NEK4 = NEK4 (Homo sapiens, UniProt P51957); experiment: biochemical; set-up: KINOMEscan active-site competition binding, percent of control (100 = no competition); details: competition binding, percent control
Text: as §1

TIE1 = TIE1 (Homo sapiens, UniProt P35590); experiment: biochemical; set-up: KINOMEscan active-site competition binding, percent of control (100 = no competition); details: competition binding, percent control
Text: as §1

PRKCH = PRKCH (Homo sapiens, UniProt P24723); experiment: biochemical; set-up: KINOMEscan active-site competition binding, percent of control (100 = no competition); details: competition binding, percent control
Text: as §1

[3] = biological target: T8, ABL1(E255K)-phosphorylated (Homo sapiens, UniProt P00519, E255K); experiment: biochemical; set-up: KINOMEscan active-site competition binding, percent of control (100 = no competition); details: competition binding, percent control
T8 construct: phosphorylated
Text: as §1

DAPK1 = DAPK1 (Homo sapiens, UniProt P53355); experiment: biochemical; set-up: KINOMEscan active-site competition binding, percent of control (100 = no competition); details: competition binding, percent control
Text: as §1

LIMK2 = LIMK2 (Homo sapiens, UniProt P53671); experiment: in vitro kinase enzyme assay; assay type: biochemical

T6 sequence (P19525 whole entry): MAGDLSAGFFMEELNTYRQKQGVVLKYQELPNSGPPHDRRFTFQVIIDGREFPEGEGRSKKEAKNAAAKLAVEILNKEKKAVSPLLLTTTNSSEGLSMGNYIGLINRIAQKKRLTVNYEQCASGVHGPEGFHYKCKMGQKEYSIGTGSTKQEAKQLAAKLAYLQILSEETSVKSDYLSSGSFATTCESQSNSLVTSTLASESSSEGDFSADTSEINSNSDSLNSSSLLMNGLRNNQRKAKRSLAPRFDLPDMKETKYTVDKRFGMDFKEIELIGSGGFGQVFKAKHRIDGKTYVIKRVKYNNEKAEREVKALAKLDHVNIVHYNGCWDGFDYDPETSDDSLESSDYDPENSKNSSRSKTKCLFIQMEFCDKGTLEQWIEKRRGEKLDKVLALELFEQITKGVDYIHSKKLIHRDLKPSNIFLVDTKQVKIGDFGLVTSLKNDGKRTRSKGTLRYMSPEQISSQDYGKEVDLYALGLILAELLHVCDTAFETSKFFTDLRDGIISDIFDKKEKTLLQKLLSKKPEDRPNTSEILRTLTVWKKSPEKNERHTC
Sequence of CDK8 (P49336 whole entry): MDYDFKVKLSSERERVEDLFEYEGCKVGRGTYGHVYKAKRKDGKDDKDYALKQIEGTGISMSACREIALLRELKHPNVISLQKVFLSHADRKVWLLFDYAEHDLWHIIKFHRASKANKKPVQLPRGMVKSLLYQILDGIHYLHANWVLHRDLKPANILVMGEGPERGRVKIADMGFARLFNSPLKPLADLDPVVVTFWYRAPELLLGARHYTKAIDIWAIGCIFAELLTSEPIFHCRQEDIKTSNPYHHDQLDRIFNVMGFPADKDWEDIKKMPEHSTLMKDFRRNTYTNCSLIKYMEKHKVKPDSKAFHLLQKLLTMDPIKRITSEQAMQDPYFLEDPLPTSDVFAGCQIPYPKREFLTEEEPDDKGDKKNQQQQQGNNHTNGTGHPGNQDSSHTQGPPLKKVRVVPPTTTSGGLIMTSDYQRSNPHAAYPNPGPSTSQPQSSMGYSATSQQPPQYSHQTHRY
Sequence of NEK4 (P51957 whole entry): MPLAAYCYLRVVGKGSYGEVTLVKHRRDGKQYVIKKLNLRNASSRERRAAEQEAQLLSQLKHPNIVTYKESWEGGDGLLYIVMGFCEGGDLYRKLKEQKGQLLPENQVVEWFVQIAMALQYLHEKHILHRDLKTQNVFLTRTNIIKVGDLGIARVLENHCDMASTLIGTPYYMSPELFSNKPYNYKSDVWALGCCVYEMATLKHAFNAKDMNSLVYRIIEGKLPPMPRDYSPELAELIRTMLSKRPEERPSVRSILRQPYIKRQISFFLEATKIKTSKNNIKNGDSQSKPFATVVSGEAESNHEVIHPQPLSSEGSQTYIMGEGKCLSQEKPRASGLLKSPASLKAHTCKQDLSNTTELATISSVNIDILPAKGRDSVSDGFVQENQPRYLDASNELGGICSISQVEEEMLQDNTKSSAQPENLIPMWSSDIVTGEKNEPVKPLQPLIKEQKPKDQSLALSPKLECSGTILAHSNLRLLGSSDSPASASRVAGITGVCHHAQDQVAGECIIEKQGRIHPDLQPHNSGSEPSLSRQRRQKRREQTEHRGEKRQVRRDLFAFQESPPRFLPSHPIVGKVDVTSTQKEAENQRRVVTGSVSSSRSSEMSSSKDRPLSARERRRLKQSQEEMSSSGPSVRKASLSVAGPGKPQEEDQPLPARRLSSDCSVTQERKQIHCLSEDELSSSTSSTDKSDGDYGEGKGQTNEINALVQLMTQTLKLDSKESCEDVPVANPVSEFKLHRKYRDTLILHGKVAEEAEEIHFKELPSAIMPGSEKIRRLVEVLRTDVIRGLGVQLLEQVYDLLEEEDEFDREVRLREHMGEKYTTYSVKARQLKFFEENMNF
Sequence of EGFR(E746-A750del) (P00533 with tags, fused parts or gaps DEL746-750): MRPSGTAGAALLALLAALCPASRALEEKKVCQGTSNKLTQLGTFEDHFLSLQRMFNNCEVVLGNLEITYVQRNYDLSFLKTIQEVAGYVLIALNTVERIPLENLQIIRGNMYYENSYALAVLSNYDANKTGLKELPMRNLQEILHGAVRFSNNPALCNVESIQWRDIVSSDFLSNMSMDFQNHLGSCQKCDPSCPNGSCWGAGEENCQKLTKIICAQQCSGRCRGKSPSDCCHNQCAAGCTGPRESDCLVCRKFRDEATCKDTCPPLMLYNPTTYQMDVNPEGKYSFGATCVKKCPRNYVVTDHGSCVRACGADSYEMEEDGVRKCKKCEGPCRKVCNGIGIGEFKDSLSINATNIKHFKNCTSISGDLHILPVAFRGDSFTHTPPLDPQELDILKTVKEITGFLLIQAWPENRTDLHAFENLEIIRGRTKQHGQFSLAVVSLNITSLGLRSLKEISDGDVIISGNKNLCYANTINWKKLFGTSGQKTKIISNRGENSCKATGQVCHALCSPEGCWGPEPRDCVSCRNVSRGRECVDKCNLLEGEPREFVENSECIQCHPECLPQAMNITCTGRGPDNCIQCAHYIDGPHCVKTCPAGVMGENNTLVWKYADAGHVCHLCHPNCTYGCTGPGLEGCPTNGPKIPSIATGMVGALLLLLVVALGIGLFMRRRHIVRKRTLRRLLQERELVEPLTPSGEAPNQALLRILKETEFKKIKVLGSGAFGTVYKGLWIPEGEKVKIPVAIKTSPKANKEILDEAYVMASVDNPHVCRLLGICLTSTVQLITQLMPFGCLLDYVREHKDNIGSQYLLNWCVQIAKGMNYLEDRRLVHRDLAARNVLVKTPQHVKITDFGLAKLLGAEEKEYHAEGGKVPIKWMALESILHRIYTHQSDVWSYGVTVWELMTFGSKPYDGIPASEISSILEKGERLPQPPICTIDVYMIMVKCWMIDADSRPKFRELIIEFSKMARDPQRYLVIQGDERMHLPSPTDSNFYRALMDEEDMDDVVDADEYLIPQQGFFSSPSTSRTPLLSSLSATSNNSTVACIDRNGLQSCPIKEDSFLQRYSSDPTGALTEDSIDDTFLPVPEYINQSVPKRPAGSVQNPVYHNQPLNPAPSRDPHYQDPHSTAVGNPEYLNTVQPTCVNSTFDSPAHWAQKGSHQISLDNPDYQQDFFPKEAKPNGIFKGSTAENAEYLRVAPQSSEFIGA
T5 sequence (O75676 whole entry): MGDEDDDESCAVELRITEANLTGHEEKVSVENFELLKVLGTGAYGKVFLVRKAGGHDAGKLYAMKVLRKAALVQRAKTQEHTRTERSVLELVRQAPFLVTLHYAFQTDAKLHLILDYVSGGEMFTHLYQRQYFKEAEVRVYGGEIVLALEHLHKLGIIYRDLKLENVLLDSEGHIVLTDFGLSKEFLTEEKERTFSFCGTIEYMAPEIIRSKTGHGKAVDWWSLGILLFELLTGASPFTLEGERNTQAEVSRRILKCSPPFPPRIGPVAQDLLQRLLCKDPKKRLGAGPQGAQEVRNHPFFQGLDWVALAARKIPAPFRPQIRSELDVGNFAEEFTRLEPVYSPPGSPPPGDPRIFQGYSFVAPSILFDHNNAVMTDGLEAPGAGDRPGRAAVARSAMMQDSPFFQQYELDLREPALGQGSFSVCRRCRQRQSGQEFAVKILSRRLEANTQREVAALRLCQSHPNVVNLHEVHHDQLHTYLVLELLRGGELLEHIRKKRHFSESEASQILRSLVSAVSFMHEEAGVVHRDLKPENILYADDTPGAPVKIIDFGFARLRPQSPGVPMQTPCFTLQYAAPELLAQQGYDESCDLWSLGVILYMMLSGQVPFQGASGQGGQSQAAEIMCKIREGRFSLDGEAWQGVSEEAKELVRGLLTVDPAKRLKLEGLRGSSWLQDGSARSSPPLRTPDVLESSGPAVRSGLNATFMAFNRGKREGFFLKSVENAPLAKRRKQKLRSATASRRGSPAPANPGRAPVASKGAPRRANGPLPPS
T7 sequence (Q14289 whole entry): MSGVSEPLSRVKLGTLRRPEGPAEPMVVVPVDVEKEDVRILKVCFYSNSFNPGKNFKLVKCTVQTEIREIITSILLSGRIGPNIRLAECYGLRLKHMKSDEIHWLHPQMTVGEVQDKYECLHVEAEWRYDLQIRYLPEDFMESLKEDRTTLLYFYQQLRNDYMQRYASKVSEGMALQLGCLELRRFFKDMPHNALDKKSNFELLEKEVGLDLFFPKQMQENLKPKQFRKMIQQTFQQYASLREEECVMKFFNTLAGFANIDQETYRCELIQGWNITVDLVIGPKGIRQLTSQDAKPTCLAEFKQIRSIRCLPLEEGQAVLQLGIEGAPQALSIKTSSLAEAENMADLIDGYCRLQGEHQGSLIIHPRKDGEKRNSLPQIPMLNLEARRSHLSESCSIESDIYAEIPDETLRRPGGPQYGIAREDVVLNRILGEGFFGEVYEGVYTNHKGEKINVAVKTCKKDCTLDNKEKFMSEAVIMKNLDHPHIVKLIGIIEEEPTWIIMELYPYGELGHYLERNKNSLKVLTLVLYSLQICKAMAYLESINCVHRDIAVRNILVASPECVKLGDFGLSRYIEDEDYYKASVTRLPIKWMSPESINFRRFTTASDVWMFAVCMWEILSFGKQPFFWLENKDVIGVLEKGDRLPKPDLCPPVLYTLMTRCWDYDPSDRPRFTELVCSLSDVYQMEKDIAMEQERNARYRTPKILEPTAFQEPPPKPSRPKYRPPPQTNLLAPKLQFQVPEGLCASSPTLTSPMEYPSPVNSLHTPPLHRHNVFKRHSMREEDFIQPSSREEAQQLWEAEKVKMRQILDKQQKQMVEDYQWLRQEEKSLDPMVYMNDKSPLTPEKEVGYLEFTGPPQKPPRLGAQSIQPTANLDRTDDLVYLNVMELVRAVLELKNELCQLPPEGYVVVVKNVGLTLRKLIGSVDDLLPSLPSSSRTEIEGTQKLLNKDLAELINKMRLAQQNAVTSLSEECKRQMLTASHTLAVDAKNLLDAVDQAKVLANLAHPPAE

SMILES | remaining binding at 10 µM (MEK4) [%] | remaining binding at 10 µM (MAP3K3) [%] | remaining binding at 10 µM [1] [%] | remaining binding at 10 µM (LYN) [%] | remaining binding at 10 µM (SRPK2) [%] | remaining binding at 10 µM (CDK8) [%] | remaining binding at 10 µM (MEK5) [%] | remaining binding at 10 µM (SRPK1) [%] | remaining binding at 10 µM (MST1) [%] | remaining binding at 10 µM (MARK3) [%] | remaining binding at 10 µM (EGFR(E746-A750del)) [%] | remaining binding at 10 µM (TNIK) [%] | remaining binding at 10 µM [2] [%] | remaining binding at 10 µM (PRKR) [%] | remaining binding at 10 µM (MAP4K4) [%] | remaining binding at 10 µM (RIPK1) [%] | remaining binding at 10 µM (PYK2) [%] | remaining binding at 10 µM (NEK4) [%] | remaining binding at 10 µM (TIE1) [%] | remaining binding at 10 µM (PRKCH) [%] | further results
COc1ccc(-c2cnccc2-c2cnc(NC(=O)C(C)C)s2)c(C(F)(F)F)c1 [CRT0105446, N-{5-[3-(4-Methoxy-2-trifluoromethyl-phenyl)-pyridin-4-yl]-hiazol-2-yl}-isobutyramide] | 82 | 100 | 100 | 100 | 93 | 39 | 100 | 100 | 100 | 78 | 100 | 89 | 100 | 81 | 68 | 90 | 100 | 91 | 87 | 100 | remaining binding at 10 µM [3]: 78%; remaining binding at 10 µM (DAPK1): 100%; pIC50 (LIMK2): 7.49
Cc1ccc(-c2cnccc2-c2cnc(Nc3ccc(O)cc3)s2)c(Cl)c1 [CRT0105950, 4-{5-[3-(2-Chloro-4-methyl-phenyl)-pyridin-4-yl]-thiazol-2-ylamino}-phenol] | 1.8 | 20 | 33 | 26 | 83 | 11 | 60 | 74 | 3.4 | 51 | 78 | 10 | 14 | 53 | 11 | 17 | 2.2 | 77 | 16 | 49 | remaining binding at 10 µM [3]: 79%; remaining binding at 10 µM (DAPK1): 82%; pIC50 (LIMK2): 9.00
